Experimental data from patent US20140303092A1 (CHIMERIX, INC., priority 2011, published 2014).

Assay: Study HDP-CDV-201: safety and tolerability (adverse events, laboratory abnormalities, discontinuations)
Assay type: in vivo, human (adult allogeneic HSCT recipients)
Description: Clinical Studies of HDP-CDV were performed and described in detail in the following Examples. For example, HDP-CDV-201 is a placebo-controlled, dose-escalating trial in HSCT CMV (R+) recipients, evaluating the ability of HDP-CDV to prevent or control CMV infection was carried out. Five cohorts were established in which participants or subjects received either placebo or the HDP-CDV orally, in doses ranging from 40 mg weekly (QW) to 200 mg twice weekly (BIW). Subjects who were post-HSCT were enrolled at the time of engraftment and randomized to HDP-CDV or placebo (3 to 1 ratio) and received blinded therapy until approximately 100 day post-transplantation. HDP-CDV doses were 40 mg QW, 100 mg QW, 200 mg QW, 200 mg BIW and 100 mg BIW. Escalation to the next dose was decided by the data monitoring committee after review of the safety data from the previous Cohort. Subjects who developed CMV disease or CMV infection requiring pre-emptive therapy with local standard of care were discontinued from blinded therapy and followed for 4 weeks. Subjects who completed treatment with blinded therapy were followed for 8 weeks post-therapy.
Data from Study HDP-CDV-201 also provided characterization of the safety and tolerability profile of HDP-CDV when administered for the prevention or control of CMV infection in high risk (R^+) post-HSCT adult subjects.
The Safety population (SAFETY) included all randomized subjects who took at least one dose of study treatment. This population was used to summarize safety outcomes based on the treatment actually received, in cases where a subject was treated contrary to the randomization schedule.
The safety and tolerability profile of HDP-CDV, including subject demographics and Baseline characteristics; the AE profile; and laboratory abnormalities of interest were analyzed in the cohorts followed in this investigation.
Subjects completing the treatment period received a full course of study medication; those completing the entire study attended visits through 8 weeks of follow up. Subjects who discontinued treatment may have done so for protocol specified reasons (e.g. development of clinically significant CMV infection requiring preemptive treatment with excluded anti-CMV medications) or for other reasons (e.g., withdrawal, adverse events, loss to follow-up). The disposition of subjects in Study HDP-CDV-201 during the double-blind, placebo-controlled treatment period (through Week 11) is listed by dosing Cohort in TABLE 23.
Adverse events were examined by severity to ensure that all safety signals were identified in this study population. Because of the frequency of events in HSCT recipients, particular attention was given to evaluation of Grade 3 […], 4 (severe), and 5 (fatal) adverse events.
Only those preferred terms for which at least one Grade 3 or higher event was experienced in any treatment group are listed. Cytomegalovirus-related AEs are excluded from this analysis.
HDP-CDV is a lipid conjugate of CDV. Because CDV is known to have adverse effects on renal function and bone marrow, decreased GFR and persistent neutropenia were identified as AEs of special interest. Key renal and hematological (TABLE 30) laboratory parameters were measured and listed below by Study HDP-CDV-201 treatment groups. TABLE 30 includes abnormal levels of serum creatinine, neutrophils, platelets, WBCs, and hemoglobin and includes data at Screening and during the treatment period.
A common metric for unit based dosing of medications is by weight (mg/kg). When the distribution of weights was examined for all subjects participating in the study, the median was 78 kg and the lower 25th percentile weight was approximately 65 kg, which translates to a cut-off of ˜3 mg/kg for a 200 mg total weekly dose. Based upon this approach, a cut-off of 3 mg/kg was used to assess the frequency of diarrhea and associated GI AEs reported for the subjects in Cohorts 3 or 4a (TABLE 40).

[1] = Cohort 3, 200 mg QW, through Week 11

Compound: CCCCCCCCCCCCCCCCOCCCOP(=O)(O)COC(CO)Cn1ccc(N)nc1=O (stereo not drawn) [HDP-CDV]
- TEAE Vomiting Overall Frequency, subjects (Cohort 3, 200 mg QW): 6 (15.4%)
- Total Bilirubin (Screening) >1-[…] ULN, subjects (Cohort 3, 200 mg QW): 0
- Total Bilirubin (Screening) >1.5-3 × ULN, subjects (Cohort 3, 200 mg QW): 0
- Total Bilirubin (Screening) >3-10 × ULN, subjects (Cohort 3, 200 mg QW): 0
- Total Bilirubin (Screening) >10 × ULN, subjects (Cohort 3, 200 mg QW): 0
- Total Bilirubin (any time during therapy) >1-[…] ULN, subjects (Cohort 3, 200 mg QW): 1 (2.6%)
- Total Bilirubin (any time during therapy) >1.5-3 × ULN, subjects (Cohort 3, 200 mg QW): 3 (7.9%)
- Total Bilirubin (any time during therapy) >3-10 × ULN, subjects (Cohort 3, 200 mg QW): 0
- Total Bilirubin (any time during therapy) >10 × ULN, subjects (Cohort 3, 200 mg QW): 0
- Abdominal pain leading to study drug withdrawal (Cohort 3, 200 mg QW, N = 39): 0%
- All AEs leading to withdrawal (Cohort 3, 200 mg QW, N = 39): 15 (38.5%)
- Diarrhoea leading to study drug withdrawal (Cohort 3, 200 mg QW, N = 39): 1 (2.6%)
- Dyspepsia leading to study drug withdrawal (Cohort 3, 200 mg QW, N = 39): 2 (5.1%)
- Nausea leading to study drug withdrawal (Cohort 3, 200 mg QW, N = 39): 0%
- TEAE ALT increased (Cohort 3, 200 mg QW, N = 39): 2 (5.1%) n (%)
- TEAE AST increased (Cohort 3, 200 mg QW, N = 39): 1 (2.6%) n (%)
- TEAE Abdominal pain (Cohort 3, 200 mg QW, N = 39): 5 (12.8%) n (%)
- TEAE Abdominal pain, Upper (Cohort 3, 200 mg QW, N = 39): 1 (2.6%) n (%)
- TEAE Acute GVHD (Cohort 3, 200 mg QW, N = 39): 13 (33.3%) n (%)
- TEAE Acute Myeloid Leukemia recurrent (Cohort 3, 200 mg QW, N = 39): 0 n (%)
- TEAE Acute Renal Failure (Cohort 3, 200 mg QW, N = 39): 0 n (%)
- TEAE Anxiety (Cohort 3, 200 mg QW, N = 39): 3 (7.7%) n (%)
- TEAE Arthralgias (Cohort 3, 200 mg QW, N = 39): 1 (2.6%) n (%)
- TEAE Back Pain (Cohort 3, 200 mg QW, N = 39): 2 (5.1%) n (%)
- TEAE Blood lactate dehydrogenase increased (Cohort 3, 200 mg QW, N = 39): 0 n (%)
- TEAE Creatinine increased (Cohort 3, 200 mg QW, N = 39): 3 (7.7%) n (%)
- TEAE Cytomegalovirus viremia (Cohort 3, 200 mg QW, N = 39): 7 (17.9%) n (%)
- TEAE Decreased appetite (Cohort 3, 200 mg QW, N = 39): 3 (7.7%) n (%)
- TEAE Diarrhoea (Cohort 3, 200 mg QW, N = 39): 13 (33.3%) n (%)
- TEAE Dysgeusia (Cohort 3, 200 mg QW, N = 39): 2 (5.1%) n (%)
- TEAE Fatigue (Cohort 3, 200 mg QW, N = 39): 5 (12.8%) n (%)
- TEAE GI Reflux Disease (Cohort 3, 200 mg QW, N = 39): 2 (5.1%) n (%)
- TEAE Gamma-glutamyltransferase increased (Cohort 3, 200 mg QW, N = 39): 0 n (%)
- TEAE Generalized oedema (Cohort 3, 200 mg QW, N = 39): 0 n (%)
- TEAE Hyperbilirubinaemia (Cohort 3, 200 mg QW, N = 39): 3 (7.7%) n (%)
- TEAE Hyperglycaemia (Cohort 3, 200 mg QW, N = 39): 1 (2.6%) n (%)
- TEAE Hyperkalemia (Cohort 3, 200 mg QW, N = 39): 1 (2.6%) n (%)
- TEAE Hypocalcaemia (Cohort 3, 200 mg QW, N = 39): 0 n (%)
- TEAE Hypokalaemia (Cohort 3, 200 mg QW, N = 39): 5 (12.8%) n (%)
- TEAE Hyponatraemia (Cohort 3, 200 mg QW, N = 39): 7 (17.9%) n (%)
- TEAE Increased leukocytosis (Cohort 3, 200 mg QW, N = 39): 2 (5.1%) n (%)
- TEAE Insomnia (Cohort 3, 200 mg QW, N = 39): 5 (12.8%) n (%)
- TEAE Liver function test abnormal (Cohort 3, 200 mg QW, N = 39): 2 (5.1%) n (%)
- TEAE Malnutrition (Cohort 3, 200 mg QW, N = 39): 1 (2.6%) n (%)
- TEAE Nausea (Cohort 3, 200 mg QW, N = 39): 11 (28.2%) n (%)
- TEAE Neutropenia (Cohort 3, 200 mg QW, N = 39): 4 (10.3%) n (%)
- TEAE Oedema peripheral (Cohort 3, 200 mg QW, N = 39): 3 (7.7%) n (%)
- TEAE Oral Candidiasis (Cohort 3, 200 mg QW, N = 39): 2 (5.1%) n (%)
- TEAE Pneumonia (Cohort 3, 200 mg QW, N = 39): 0 n (%)
- TEAE Pyrexia (Cohort 3, 200 mg QW, N = 39): 7 (17.9%) n (%)
- TEAE Recurrent flatulence (Cohort 3, 200 mg QW, N = 39): 1 (2.6%) n (%)
- TEAE Renal Failure (Cohort 3, 200 mg QW, N = 39): 0 n (%)
- TEAE Staphylococcal Bacteremia (Cohort 3, 200 mg QW, N = 39): 1 (2.6%) n (%)
- TEAE Thrombocytopenia (Cohort 3, 200 mg QW, N = 39): 0 n (%)
- TEAE Tremor (Cohort 3, 200 mg QW, N = 39): 2 (5.1%) n (%)
- TEAE Vomiting (Cohort 3, 200 mg QW, N = 39): 6 (15.4%) n (%)
- Vomiting leading to study drug withdrawal (Cohort 3, 200 mg QW, N = 39): 0%
- All AEs, Grade 5 (deaths) (Cohort 3, 200 mg QW, N = 39, entire study duration): 3 (7.7%)
- Subjects completed treatment [1]: 18 (46.2%) n (%)
- Subjects who permanently discontinued treatment [1]: 21 (53.8%) n (%)
- TEAE Abdominal pain Grade 2, subjects (Cohort 3, 200 QW >3 mg/kg): 0
- TEAE Abdominal pain Grade 3, subjects (Cohort 3, 200 QW >3 mg/kg): 1 (7.1%)
- TEAE Abdominal pain Grade 4, subjects (Cohort 3, 200 QW >3 mg/kg): 0
- TEAE Abdominal pain Grade 5, subjects (Cohort 3, 200 QW >3 mg/kg): 0
- TEAE Abdominal pain Overall Frequency, subjects (Cohort 3, 200 QW >3 mg/kg): 2 (14.3%)
- TEAE Diarrhea Grade 2, subjects (Cohort 3, 200 QW >3 mg/kg): 4 (28.6%)
- TEAE Diarrhea Grade 3, subjects (Cohort 3, 200 QW >3 mg/kg): 1 (7.1%)
- TEAE Diarrhea Grade 4, subjects (Cohort 3, 200 QW >3 mg/kg): 0
- TEAE Diarrhea Grade 5, subjects (Cohort 3, 200 QW >3 mg/kg): 0
- TEAE Diarrhea Overall Frequency, subjects (Cohort 3, 200 QW >3 mg/kg): 8 (57.1%)
- TEAE Hypokalaemia Grade 2, subjects (Cohort 3, 200 QW >3 mg/kg): 1 (7.1%)
- TEAE Hypokalaemia Grade 3, subjects (Cohort 3, 200 QW >3 mg/kg): 0
- TEAE Hypokalaemia Grade 4, subjects (Cohort 3, 200 QW >3 mg/kg): 0
- TEAE Hypokalaemia Grade 5, subjects (Cohort 3, 200 QW >3 mg/kg): 0
- TEAE Hypokalaemia, subjects (Cohort 3, 200 QW >3 mg/kg): 4 (28.6%)
- TEAE Nausea Grade 2, subjects (Cohort 3, 200 QW >3 mg/kg): 1 (7.1%)
- TEAE Nausea Grade 3, subjects (Cohort 3, 200 QW >3 mg/kg): 0
- TEAE Nausea Grade 4, subjects (Cohort 3, 200 QW >3 mg/kg): 0
- TEAE Nausea Grade 5, subjects (Cohort 3, 200 QW >3 mg/kg): 0
- TEAE Nausea Overall Frequency, subjects (Cohort 3, 200 QW >3 mg/kg): 3 (21.4%)
- TEAE Vomiting Grade 2, subjects (Cohort 3, 200 QW >3 mg/kg): 0
- TEAE Vomiting Grade 3, subjects (Cohort 3, 200 QW >3 mg/kg): 0
- TEAE Vomiting Grade 4, subjects (Cohort 3, 200 QW >3 mg/kg): 0
- TEAE Vomiting Grade 5, subjects (Cohort 3, 200 QW >3 mg/kg): 0
- TEAE Vomiting Overall Frequency, subjects (Cohort 3, 200 QW >3 mg/kg): 2 (14.3%)
- TEAE Abdominal pain Grade 2, subjects (Cohort 3, 200 QW ≦3 mg/kg): 1 (4.0%)
- TEAE Abdominal pain Grade 3, subjects (Cohort 3, 200 QW ≦3 mg/kg): 0
- TEAE Abdominal pain Grade 4, subjects (Cohort 3, 200 QW ≦3 mg/kg): 0
- TEAE Abdominal pain Grade 5, subjects (Cohort 3, 200 QW ≦3 mg/kg): 0
- TEAE Abdominal pain Overall Frequency, subjects (Cohort 3, 200 QW ≦3 mg/kg): 3 (12%)
- TEAE Diarrhea Grade 2, subjects (Cohort 3, 200 QW ≦3 mg/kg): 1 (4.0%)
- TEAE Diarrhea Grade 3, subjects (Cohort 3, 200 QW ≦3 mg/kg): 1 (4.0%)
- TEAE Diarrhea Grade 4, subjects (Cohort 3, 200 QW ≦3 mg/kg): 0
- TEAE Diarrhea Grade 5, subjects (Cohort 3, 200 QW ≦3 mg/kg): 0
- TEAE Diarrhea Overall Frequency, subjects (Cohort 3, 200 QW ≦3 mg/kg): 5 (20%)
- TEAE Hypokalaemia Grade 2, subjects (Cohort 3, 200 QW ≦3 mg/kg): 1 (4.0%)
- TEAE Hypokalaemia Grade 3, subjects (Cohort 3, 200 QW ≦3 mg/kg): 0
- TEAE Hypokalaemia Grade 4, subjects (Cohort 3, 200 QW ≦3 mg/kg): 0
- TEAE Hypokalaemia Grade 5, subjects (Cohort 3, 200 QW ≦3 mg/kg): 0
- TEAE Hypokalaemia, subjects (Cohort 3, 200 QW ≦3 mg/kg): 1 (4.0%)
- TEAE Nausea Grade 2, subjects (Cohort 3, 200 QW ≦3 mg/kg): 3 (12%)
- TEAE Nausea Grade 3, subjects (Cohort 3, 200 QW ≦3 mg/kg): 1 (4.0%)
- TEAE Nausea Grade 4, subjects (Cohort 3, 200 QW ≦3 mg/kg): 0
- TEAE Nausea Grade 5, subjects (Cohort 3, 200 QW ≦3 mg/kg): 0
- TEAE Nausea Overall Frequency, subjects (Cohort 3, 200 QW ≦3 mg/kg): 8 (32%)
- TEAE Vomiting Grade 2, subjects (Cohort 3, 200 QW ≦3 mg/kg): 1 (4.0%)
- TEAE Vomiting Grade 3, subjects (Cohort 3, 200 QW ≦3 mg/kg): 1 (4.0%)
- TEAE Vomiting Grade 4, subjects (Cohort 3, 200 QW ≦3 mg/kg): 0
- TEAE Vomiting Grade 5, subjects (Cohort 3, 200 QW ≦3 mg/kg): 0
- TEAE Vomiting Overall Frequency, subjects (Cohort 3, 200 QW ≦3 mg/kg): 4 (16%)
- Abnormal ALT >3-5x ULN, Any Time Between Week 2 and Week 10, subjects (Cohort 3, >3.0 mg/kg/wk): 1 (7.1%)
